Reference: patent US9328099B2, “Cyanomethylpyrazole carboxamides as janus kinase inhibitors” (Merck Sharp & Dohme Corp., priority 2011, dated 2016)

Tests used:
JAK1 = JAK1 (Homo sapiens (Human), UniProt P23458); assay: Jak Biochemical HTRF Assay, JAK1; settings: HTRF biochemical assay, GST-tagged catalytic domain; top concentration tested […]; read-out: JAK1 IC50
Description: (§1) Jak Biochemical HTRF Assay Protocol
(§2) Subsequent reagent additions employed an Agilent Bravo.

JAK2 = JAK2 (Homo sapiens (Human), UniProt O60674); assay: Jak Biochemical HTRF Assay, JAK2; settings: HTRF biochemical assay, GST-tagged catalytic domain; top concentration tested […]
Chain of JAK2 (O60674 849-1124): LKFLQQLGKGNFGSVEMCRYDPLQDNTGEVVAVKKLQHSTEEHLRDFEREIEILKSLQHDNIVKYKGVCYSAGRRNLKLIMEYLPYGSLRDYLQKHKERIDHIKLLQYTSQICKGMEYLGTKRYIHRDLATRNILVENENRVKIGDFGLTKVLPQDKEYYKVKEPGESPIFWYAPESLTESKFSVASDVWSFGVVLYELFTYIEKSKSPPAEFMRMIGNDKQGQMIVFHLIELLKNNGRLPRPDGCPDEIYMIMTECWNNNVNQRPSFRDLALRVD
Description: as §1, §2

Chain of JAK1 (P23458 875-1153): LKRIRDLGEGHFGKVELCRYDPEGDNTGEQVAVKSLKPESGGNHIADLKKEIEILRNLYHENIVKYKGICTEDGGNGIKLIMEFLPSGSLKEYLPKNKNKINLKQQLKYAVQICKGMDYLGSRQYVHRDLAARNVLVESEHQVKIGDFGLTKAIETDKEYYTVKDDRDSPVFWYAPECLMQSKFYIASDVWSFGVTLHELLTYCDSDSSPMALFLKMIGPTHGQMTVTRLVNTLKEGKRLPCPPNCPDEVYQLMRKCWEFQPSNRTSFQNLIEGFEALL

Row | IC50 (JAK1) | IC50 (JAK2) | Structure (SMILES)
1 | 1 nM | 25 nM | CC(C)(C)OC(=O)N1CC[C@](CC#N)(n2cc(C(N)=O)c(Nc3ccc(F)cc3)n2)[C@@H](F)C1 (racemic) [Example 6-3, tert-butyl (3S,4R and 3R,4S)-4-{4-carbamoyl-3-[(4-fluorophenyl)amino]-1H-pyrazol-1-yl}-4-(cyanomethyl)-3-fluoropiperidine-1-carboxylate]
2 | 0.05 nM | 0.2 nM | CC(C)(C)OC(=O)N1CC[C@](CC#N)(n2cc(C(N)=O)c(Nc3ccc(F)cc3)n2)[C@H](F)C1 (racemic) [Example 6-4, tert-butyl (3S,4S and 3R,4R)-4-{4-carbamoyl-3-[(4-fluorophenyl)amino]-1H-pyrazol-1-yl}-4-(cyanomethyl)-3-fluoropiperidine-1-carboxylate]
3 | 2 nM | 32 nM | CC(C)(C)OC(=O)N1CC[C@@](CC#N)(n2cc(C(N)=O)c(Nc3ccc(F)cc3)n2)[C@H](F)C1 (single isomer, unassigned) [Example 47-3, tert-butyl (3R,4S or 3S,4R)-4-{4-carbamoyl-3-[(4-fluorophenyl)amino]-1H-pyrazol-1-yl}-4-(cyanomethyl)-3-fluoropiperidine-1-carboxylate]
4 | 2 nM | 83 nM | CC(C)(C)OC(=O)N1CC[C@](CC#N)(n2cc(C(N)=O)c(Nc3ccc(F)cc3)n2)[C@@H](F)C1 (single isomer, unassigned) [Example 47-4, tert-butyl (3S,4R or 3R,4S)-4-{4-carbamoyl-3-[(4-fluorophenyl)amino]-1H-pyrazol-1-yl}-4-(cyanomethyl)-3-fluoropiperidine-1-carboxylate]
5 | 4 nM | 154 nM | COc1ccc(N2CCC(CC#N)(n3cc(C(N)=O)c(Nc4ccc(F)cc4)n3)CC2)cc1OC [Example 3-1, 1-[4-(Cyanomethyl)-1-(3,4-dimethoxyphenyl)piperidin-4-yl]-3-[(4-fluorophenyl)amino]-1H-pyrazole-4-carboxamide]
6 | 5 nM | 488 nM | N#CCC1(n2cc(C(N)=O)c(Nc3ccc(F)cc3)n2)CCN(c2ccnc3ccccc23)CC1 [Example 3-3, 1-[4-(cyanomethyl)-1-quinolin-4-ylpiperidin-4-yl]-3-[(4-fluorophenyl)amino]-1H-pyrazole-4-carboxamide]
7 | 8 nM | 174 nM | Cc1cc(N2CCC(CC#N)(n3cc(C(N)=O)c(Nc4ccc(F)cc4)n3)CC2)ccn1 [Example 3-4, 1-[4-(cyanomethyl)-1-(2-methylpyridin-4-yl)piperidin-4-yl]-3-[(4-fluorophenyl)amino]-1H-pyrazole-4-carboxamide]
8 | 0.2 nM | 4 nM | N#CCC1(n2cc(C(N)=O)c(Nc3ccc(F)cc3)n2)CCN(c2cncc(F)c2)CC1 [Example 3-5, 1-[4-(cyanomethyl)-1-(5-fluoropyridin-3-yl)piperidin-4-yl]-3-[(4-fluorophenyl)amino]-1H-pyrazole-4-carboxamide]
9 | 0.2 nM | 5 nM | COc1cc(N2CCC(CC#N)(n3cc(C(N)=O)c(Nc4ccc(F)cc4)n3)CC2)ccn1 [Example 3-6, 1-[4-(cyanomethyl)-1-(2-methoxypyridin-4-yl)piperidin-4-yl]-3-[(4-fluorophenyl)amino]-1H-pyrazole-4-carboxamide]

More lines, now with the values behind:

Row | Structure (SMILES) | IC50 (JAK1) | IC50 (JAK2)
10 | CC(C)(C)OC(=O)NC1CCC(CC#N)(n2cc(C(N)=O)c(Nc3ccccc3)n2)CC1 (single isomer, unassigned) [Example 2-19, (1s,3s or 1r,3r) tert-butyl {4-[4-carbamoyl-3-(phenylamino)-1H-pyrazol-1-yl]-4-(cyanomethyl)cyclohexyl}carbamate] | 12 nM | 267 nM
11 | CNC(=O)c1cn(C2(CC#N)CCN(C(=O)OC(C)(C)C)CC2)nc1Nc1ccccc1 [Example 1, tert-Butyl 4-(cyanomethyl)-4-[4-(methylcarbamoyl)-3-(phenylamino)-1H-pyrazol-1-yl]piperidine-1-carboxylate] | 67 nM | 1480 nM
12 | CC(C)(C)OC(=O)N1CCC(CC#N)(n2cc(C(N)=O)c(Nc3ccccc3)n2)CC1 [Example 2-1, tert-Butyl 4-[4-carbamoyl-3-(phenylamino)-1H-pyrazol-1-yl]-4-(cyanomethyl)piperidine-1-carboxylate] | 1 nM | 27 nM
13 | CC(C)(C)OC(=O)N1CCC(CC#N)(n2cc(C(N)=O)c(Nc3ccc(Br)cc3)n2)CC1 [Example 2-2, tert-butyl 4-{3-[(4-bromophenyl)amino]-4-carbamoyl-1H-pyrazol-1-yl}-4-(cyanomethyl)piperidine-1-carboxylate] | 0.5 nM | 23 nM
14 | CC(C)(C)OC(=O)N1CC(CC#N)(n2cc(C(N)=O)c(Nc3ccccc3)n2)C1 [Example 2-3, tert-butyl 3-[4-carbamoyl-3-(phenylamino)-1H-pyrazol-1-yl]-3-(cyanomethyl)azetidine-1-carboxylate] | 8 nM | 57 nM
15 | CC(C)(C)OC(=O)N1CCC(CC#N)(n2cc(C(N)=O)c(Nc3cccc(Cn4nnc5ccccc54)c3)n2)CC1 [Example 2-4, tert-butyl 4-(3-{[3-(1H-benzotriazol-1-ylmethyl)phenyl]amino}-4-carbamoyl-1H-pyrazol-1-yl)-4-(cyanomethyl)piperidine-1-carboxylate] | 0.5 nM | 18 nM
16 | CC(C)(C)OC(=O)N1CC(CC#N)(n2cc(C(N)=O)c(Nc3ccc(S(C)(=O)=O)cc3)n2)C1 [Example 2-5, tert-butyl 3-(4-carbamoyl-3-{[4-(methylsulfonyl)phenyl]amino}-1H-pyrazol-1-yl)-3-(cyanomethyl)azetidine-1-carboxylate] | 0.6 nM | 7 nM
17 | CC(C)(C)OC(=O)N1CCC(CC#N)(n2cc(C(N)=O)c(Nc3ccc(C(=O)N4CCS(=O)(=O)CC4)cc3)n2)CC1 [Example 2-6, tert-butyl 4-[4-carbamoyl-3-({4-[(1,1-dioxidothiomorpholin-4-yl)carbonyl]phenyl}amino)-1H-pyrazol-1-yl]-4-(cyanomethyl)piperidine-1-carboxylate] | 0.5 nM | 1 nM
18 | CC(C)(C)OC(=O)N1CCC(CC#N)(n2cc(C(N)=O)c(Nc3ccncc3)n2)CC1 [Example 2-7, tert-butyl 4-[4-carbamoyl-3-(pyridin-4-ylamino)-1H-pyrazol-1-yl]-4-(cyanomethyl)piperidine-1-carboxylate] | 0.3 nM | 10 nM
19 | CC(C)(C)OC(=O)N1CC(CC#N)(n2cc(C(N)=O)c(Nc3ccc(C(=O)N4CCS(=O)(=O)CC4)cc3)n2)C1 [Example 2-8, tert-butyl 3-[4-carbamoyl-3-({4-[(1,1-dioxidothiomorpholin-4-yl)carbonyl]phenyl}amino)-1H-pyrazol-1-yl]-3-(cyanomethyl)azetidine-1-carboxylate] | 2 nM | 5 nM
20 | CCS(=O)(=O)N1CC(CC#N)(n2cc(C(N)=O)c(Nc3ccccc3)n2)C1 [Example 2-12, 1-[3-(cyanomethyl)-1-(ethylsulfonyl)azetidin-3-yl]-3-(phenylamino)-1H-pyrazole-4-carboxamide] | 115 nM | 404 nM
21 | CCS(=O)(=O)N1CC(CC#N)(n2cc(C(N)=O)c(Nc3ccc(C(=O)N4CCS(=O)(=O)CC4)cc3)n2)C1 [Example 2-13, 1-[3-(cyanomethyl)-1-(ethylsulfonyl)azetidin-3-yl]-3-({4-[(1,1-dioxidothiomorpholin-4-yl)carbonyl]phenyl}amino)-1H-pyrazole-4-carboxamide] | 27 nM | 38 nM
22 | CS(=O)(=O)c1ccc(Nc2nn(C3(CC#N)CCCCC3)cc2C(N)=O)cc1 [Example 2-14, 1-[1-(cyanomethyl)cyclohexyl]-3-{[4-(methylsulfonyl)phenyl]amino}-1H-pyrazole-4-carboxamide] | 20 nM | 193 nM
23 | N#CCC1(n2cc(C(N)=O)c(Nc3ccccc3)n2)CCCCC1 [Example 2-15, 1-[1-(cyanomethyl)cyclohexyl]-3-(phenylamino)-1H-pyrazole-4-carboxamide] | 10 nM | 92 nM
24 | CC(C)(C)OC(=O)N1CCC(CC#N)(n2cc(C(N)=O)c(Nc3ccc(S(C)(=O)=O)cc3)n2)C1 (stereo not shown) [Example 2-16, tert-butyl 3-(4-carbamoyl-3-{[4-(methylsulfonyl)phenyl]amino}-1H-pyrazol-1-yl)-3-(cyanomethyl)pyrrolidine-1-carboxylate] | 0.2 nM | 2 nM
25 | CC(C)(C)OC(=O)N1CCC(CC#N)(n2cc(C(N)=O)c(Nc3ccccc3)n2)C1 (stereo not shown) [Example 2-17, tert-butyl 3-[4-carbamoyl-3-(phenylamino)-1H-pyrazol-1-yl]-3-(cyanomethyl)pyrrolidine-1-carboxylate] | 2 nM | 27 nM
26 | N#CCC1(n2cc(C(N)=O)c(Nc3ccccc3)n2)COC1 [Example 2-20, 1-[3-(cyanomethyl)oxetan-3-yl]-3-(phenylamino)-1H-pyrazole-4-carboxamide] | 33 nM | 241 nM
27 | N#CC[C@]1(n2cc(C(N)=O)c(Nc3ccccc3)n2)C[C@@H](C#N)C1 [Example 2-21, 1-((1s,3s)-3-cyano-1-(cyanomethyl)cyclobutyl)-3-(phenylamino)-1H-pyrazole-4-carboxamide] | 31 nM | 405 nM
28 | CS(=O)(=O)c1ccc(Nc2nn([C@]3(CC#N)C[C@@H](C#N)C3)cc2C(N)=O)cc1 [Example 2-22, 1-((1r,3r)-3-cyano-1-(cyanomethyl)cyclobutyl)-3-((4-(methylsulfonyl)phenyl)amino)-1H-pyrazole-4-carboxamide] | 13 nM | 127 nM
29 | CC(C)(C)OC(=O)N1CC2(C1)CC(CC#N)(n1cc(C(N)=O)c(Nc3ccccc3)n1)C2 [Example 2-23, tert-butyl 6-[4-carbamoyl-3-(phenylamino)-1H-pyrazol-1-yl]-6-(cyanomethyl)-2-azaspiro[3.3]heptane-2-carboxylate] | 198 nM | 1480 nM
